Results from patent US9493411B2 (AbbVie Inc., priority 2013, dated 2016).
Where two headings read alike, the source gives them in different places.

How the values were obtained:
BRD4 (BDI_K57-E168) = target: T1, BRD4 (BDI_K57-E168) (Homo sapiens, UniProt O60885); assay: TR-FRET bromodomain binding assay, BRD4 first bromodomain; settings: His-tagged BD1, Alexa647-labeled probe 100 nM; Ki calculated from IC50
T1 construct: BD1: amino acids K57-E168; made in house
Method in brief: (§1)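 Competition of compound (50 μM-0.85 nM, 2% DMSO) against an Alexa647-labelled BET-inhibitor probe, 100 nM for BDI or 30 nM for BDII, on 8 nM His-BRD4 bromodomain detected by 1 nM Eu-anti-His; 20 mM sodium phosphate pH 6.0, 1 h room temperature. Normalised to unlabelled-probe controls; IC50 converted to Ki.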

BRD4 (BDII_E352-M457) = target: T2, BRD4 (BDII_E352-M457) (Homo sapiens, UniProt O60885); assay: TR-FRET bromodomain binding assay, BRD4 second bromodomain; settings: His-tagged BD2, Alexa647-labeled probe 30 nM; Ki calculated from IC50
T2 construct: made in house
Method in brief: as §1

[1] = tested on: breast cancer cell line MX-1; assay: MX-1 cell line proliferation assay; type: cell-based; settings: MX-1 cells, 3-day proliferation assay, Cell Titer Glo, read-out: Cellular proliferation: EC50
Experimental: The impact of compounds of the Examples on cancer cell proliferation was determined using the breast cancer cell line MX-1 (ATCC) in a 3-day proliferation assay and the data are reported in Table 1. MX-1 cells were maintained in RPMI 1640 medium (Sigma) supplemented with 10% FBS at 37° C. and an atmosphere of 5% CO2. For compound testing, MX-1 cells were plated in 96-well black bottom plates at a density of 5000 cells/well in 90 μL of culture media and incubated at 37° overnight to allow cell adhesion and spreading. Compound dilution series were prepared in DMSO via a 3-fold serial dilution from 3 mM to 0.1 μM. The DMSO dilution series were then diluted 1:100 in phosphate buffered saline, and 10 μL of the resulted solution were added to the appropriate wells of the MX-1 cell plate. The final compound concentrations in the wells were 3, 1, 0.3, 0.1, 0.03, 0.01, 0.003, 0.001, 0.0003 and 0.0001 μM.
Luminescence readings from the Cell Titer Glo assay were normalized to the DMSO treated cells and analyzed using the GraphPad Prism software with sigmoidal curve fitting to obtain EC50s. The minimum significant ratio (MSR) was determined to evaluate assay reproducibility (Eastwood et al., (2006) J Biomol Screen, 11: 253-261).

Row | Structure (SMILES) | Ki (BRD4 (BDI_K57-E168)) [nM] | Ki (BRD4 (BDII_E352-M457)) [nM] | EC50 ([1]; Homo sapiens, MX1, 72 h) [nM] | EC50 [1] [nM]
1 | Cc1[nH]c(-c2ccccc2NCC2CCOC2)cc1C(N)=O (stereo not shown) [Example 17, 2-methyl-5-{2-[(tetrahydrofuran-3-ylmethyl)amino]phenyl}-1H-pyrrole-3-carboxamide] | 248 | 1870 | 1500 | –
2 | Cc1[nH]c(-c2ccccc2NC[C@H]2CC[C@@H](N)CC2)cc1C(N)=O [Example 48, 5-(2-{[(cis-4-aminocyclohexyl)methyl]amino}phenyl)-2-methyl-1H-pyrrole-3-carboxamide] | 224 | 6220 | 9580 | –
3 | Cc1[nH]c(-c2ccccc2NC[C@H]2CC[C@H](N)CC2)cc1C(N)=O [Example 49, 5-(2-{[(trans-4-aminocyclohexyl)methyl]amino}phenyl)-2-methyl-1H-pyrrole-3-carboxamide] | 313 | 5600 | > 10000 | –
4 | Cc1[nH]c(-c2ccccc2NC2CCOCC2)cc1C(N)=O [Example 70, 2-methyl-5-[2-(tetrahydro-2H-pyran-4-ylamino)phenyl]-1H-pyrrole-3-carboxamide] | 434 | 4290 | > 3000 | –
5 | Cc1[nH]c(-c2cc(S(N)(=O)=O)ccc2Oc2ccc(F)cc2F)cc1C(N)=O [Example 168, 5-[2-(2,4-difluorophenoxy)-5-sulfamoylphenyl]-2-methyl-1H-pyrrole-3-carboxamide] | 106 | 757 | > 3000 | –
6 | Cc1[nH]c(-c2ccccc2NCC2CCOC2)cc1C(N)=O (single isomer, unassigned) [Example 19] | 131 | 1830 | – | 2360
7 | Cc1ccc(-c2cc(C(N)=O)c(C)[nH]2)c(C)c1 [Example 90, 5-(2,4-dimethylphenyl)-2-methyl-1H-pyrrole-3-carboxamide] | 2500 | 5180 | 6300 | –
8 | CCCCNc1ccccc1-c1cc(C(N)=O)c(C)[nH]1 [Example 27, 5-[2-(butylamino)phenyl]-2-methyl-1H-pyrrole-3-carboxamide] | 384 | 1480 | 1300 | –
9 | Cc1[nH]c(-c2ccccc2NC2CCCCC2F)cc1C(N)=O (stereo not shown) [Example 75, 5-{2-[(2-fluorocyclohexyl)amino]phenyl}-2-methyl-1H-pyrrole-3-carboxamide] | 37.6 | 225 | 433 | –
10 | Cc1[nH]c(-c2ccccc2Oc2ccc(Cc3ccccc3)cc2)cc1C(N)=O [Example 121, 5-[2-(4-benzylphenoxy)phenyl]-2-methyl-1H-pyrrole-3-carboxamide] | 776 | 10200 | > 10000 | –
11 | Cc1[nH]c(-c2cccc(-c3ccc(C(=O)NCCN(C)C)cc3)c2)cc1C(N)=O [Example 159, 5-(4′-{[2-(dimethylamino)ethyl]carbamoyl}biphenyl-3-yl)-2-methyl-1H-pyrrole-3-carboxamide] | 1080 | 2100 | 28600 | –
12 | Cc1[nH]c(-c2ccccc2NC2C3CC4CC(C3)CC2C4)cc1C(N)=O (stereo not shown) [Example 72, 2-methyl-5-{2-[tricyclo[3.3.1.1^3,7]dec-2-ylamino]phenyl}-1H-pyrrole-3-carboxamide] | 78.1 | 416 | 167 | –
13 | Cc1[nH]c(-c2ccccc2NCC2CCCO2)cc1C(N)=O (stereo not shown) [Example 13, 2-methyl-5-{2-[(tetrahydrofuran-2-ylmethyl)amino]phenyl}-1H-pyrrole-3-carboxamide] | 774 | 4540 | 3300 | –
14 | Cc1[nH]c(-c2ccccc2Oc2ccc(-n3ccnc3)cc2)cc1C(N)=O [Example 135, 5-{2-[4-(1H-imidazol-1-yl)phenoxy]phenyl}-2-methyl-1H-pyrrole-3-carboxamide] | 355 | 1860 | > 10000 | –
15 | CCOC(=O)CCN(Cc1ccccc1)C(=O)c1cc(-c2ccc(-c3c(C)noc3C)cc2)[nH]c1C [Example 96, ethyl N-benzyl-N-({5-[4-(3,5-dimethyl-1,2-oxazol-4-yl)phenyl]-2-methyl-1H-pyrrol-3-yl}carbonyl)-beta-alaninate] | 3190 | 21500 | – | –
16 | Cc1[nH]c(-c2ccc(-c3ccc(C(=O)N(C)C)cc3)cc2)cc1C(N)=O [Example 108, 5-[4′-(dimethylcarbamoyl)biphenyl-4-yl]-2-methyl-1H-pyrrole-3-carboxamide] | 11000 | 4490 | – | –
